The results in this text go back to patent US9750756B2, “Celecoxib compositions” (Pfizer Inc., priority 1998, dated 2017).

Structures are written as SMILES.

This data set can be described thus: Effect of food study (Example 17). The data set is classed as in vivo, human. The settings on record: healthy adult subjects, single 50 mg or 100 mg capsule doses, fasting or fed. The protocol: An open-label randomized, single dose, four-way crossover study was employed to evaluate the dose proportionality and the effect of food on the pharmacokinetic profile of celecoxib in healthy adult subjects. Safety was assessed based on adverse events, vital signs and clinical laboratory tests. Twenty four healthy adult subjects were randomized to receive the following single doses of celecoxib: (A) a 50 mg dose capsule under fasting conditions, (B) a 50 mg dose capsule immediately following a high fat breakfast, (C) a 100 mg dose capsule under fasting conditions, and (D) a 100 mg dose capsule immediately following a high fat breakfast. The subjects received the study medication on days 1, 8, 15 and 22 in one of four treatment sequences (ADBC; BACD; CBDA; and DCAB). The specific composition of the 100 mg dose capsule is disclosed in Example 1. The specific composition of the 50 mg dose capsule is disclosed in Table 17A below:
Blood samples were collected at −0.25 (predose), 0.5, 1, 1.5, 2, 3, 4, 6, 8, 12, 16, 24, 36 and 48 hours post dose. Analyses of the separated plasma were performed at PPD Pharmaco, Richmond, Va. Celecoxib plasma concentrations were determined using a validated high performance liquid chromatography (“HPLC”) procedure with a lower limit of detection of 10.0 ng/ml. […] All adverse events were mild in severity.

For the molecule `Cc1ccc(-c2cc(C(F)(F)F)nn2-c2ccc(S(N)(=O)=O)cc2)cc1` [celecoxib, 4-[5-(4-methylphenyl)-3-(trifluoromethyl)-1H-pyrazol-1-yl]benzenesulfonamide], the “changes in vital signs or physical examinations” value was “no clinically significant changes” and the “severity of adverse events” value is on record as “mild”.
